Test results reported in patent US11708359B2, “Monoacylglycerol lipase modulators” (Janssen Pharmaceutica NV, priority 2020, dated 2023).

Each molecule was assayed against human MGL from HeLa cells (Homo sapiens (Human), UniProt Q99685) (assay: MGL in vitro activity assay ([glycerol-1,3-3H]-oleoyl glycerol cleavage, activated carbon filter)). Settings: not given.
Format: biochemical
Protocol: The assay consists of combining endogenously expressed MGL from HeLa cells with test compounds, adding[glycerol-1,3-^3H]-oleoyl glycerol, incubating for one hour, and then measuring the amount of cleaved[1,3-^3H]-glycerol that passes through an activated carbon filter. The amount of cleaved, tritiated glycerol passing through the carbon filter is proportional to the activity of the MGL enzyme in a particular well/test condition.
Standard conditions for this assay combine 300 nM [Glycerol-1,3-^3H]-oleoyl glycerol with human MGL from HeLa cells and test compounds for one hour, after which the reaction is filtered through activated carbon and tritium is measured in the flow through. […] MGL is the predominant hydrolase in HeLa cells/cell homogenates.

Sequence of human MGL from HeLa cells (Q99685 whole entry): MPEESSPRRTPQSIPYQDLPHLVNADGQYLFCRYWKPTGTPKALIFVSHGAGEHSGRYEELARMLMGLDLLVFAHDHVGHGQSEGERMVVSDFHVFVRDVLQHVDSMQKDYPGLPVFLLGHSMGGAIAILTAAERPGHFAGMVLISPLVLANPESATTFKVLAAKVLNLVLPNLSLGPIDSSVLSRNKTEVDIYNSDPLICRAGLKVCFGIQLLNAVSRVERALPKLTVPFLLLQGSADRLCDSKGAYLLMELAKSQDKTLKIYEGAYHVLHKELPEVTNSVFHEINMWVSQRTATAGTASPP

Row | SMILES | IC50
1 | O=C1N[C@]2(CO1)C[C@H](C(=O)N1CCC3(c4cccc(OC(F)(F)F)c4)CC3C1)C2 (mixture of isomers) [Example 49, (rac)-(2s,4s)-2-(6-(3-(Trifluoromethoxy)phenyl)-3-azabicyclo[4.1.0]heptane-3-carbonyl)-7-oxa-5-azaspiro[3.4]octan-6-one] | 1.6 nM
2 | Cc1ccc(C23CCN(C(=O)[C@H]4C[C@]5(COC(=O)N5)C4)CC2C3)cc1OC(F)(F)F (mixture of isomers) [Example 75, (rac)-(2s,4s)-2-(6-(4-Methyl-3-(trifluoromethoxy)phenyl)-3-azabicyclo[4.1.0]heptane-3-carbonyl)-7-oxa-5-azaspiro[3.4]octan-6-one] | 0.34 nM
3 | Cc1ccc(C23CCN(C(=O)[C@H]4C[C@]5(CCC(=O)N5)C4)CC2C3)cc1OC(F)(F)F (mixture of isomers) [Example 76, (rac)-(2r,4s)-2-(6-(4-Methyl-3-(trifluoromethoxy)phenyl)-3-azabicyclo[4.1.0]heptane-3-carbonyl)-5-azaspiro[3.4]octan-6-one] | 2.6 nM

Same assay, conditions: 300 nM [Glycerol-1,3-3H]-oleoyl glycerol, endogenously expressed MGL from HeLa cells, one hour incubation; read-out: MGL IC50

Row | SMILES | IC50
4 | Cc1ccc(C23CC2CN(C(=O)[C@H]2C[C@]4(COC(=O)N4)C2)C3)cc1F (mixture of isomers) [Example 37, (rac)-(2s,4s)-2-(1-(3-Fluoro-4-methylphenyl)-3-azabicyclo[3.1.0]hexane-3-carbonyl)-7-oxa-5-azaspiro[3.4]octan-6-one] | 10 nM
5 | O=C1N[C@]2(CO1)C[C@H](C(=O)N1CCC3(c4ccccc4)CC3C1)C2 (mixture of isomers) [Example 39, (rac)-(2s,4s)-2-(6-Phenyl-3-azabicyclo[4.1.0]heptane-3-carbonyl)-7-oxa-5-azaspiro[3.4]octan-6-one] | 20 nM
6 | Cc1cccc(C23CCN(C(=O)[C@H]4C[C@]5(COC(=O)N5)C4)CC2C3)c1 (mixture of isomers) [Example 43, (rac)-(2s,4s)-2-(6-(m-Tolyl)-3-azabicyclo[4.1.0]heptane-3-carbonyl)-7-oxa-5-azaspiro[3.4]octan-6-one] | 8.2 nM
7 | Cc1ccc(C23CCN(C(=O)[C@H]4C[C@]5(COC(=O)N5)C4)CC2C3)cc1F (mixture of isomers) [Example 46, (rac)-(2s,4s)-2-(6-(3-Fluoro-4-methylphenyl)-3-azabicyclo[4.1.0]heptane-3-carbonyl)-7-oxa-5-azaspiro[3.4]octan-6-one] | 3.7 nM
8 | O=C1CC[C@]2(C[C@H](C(=O)N3CCC4(c5cccc(OC(F)(F)F)c5)CC4C3)C2)N1 (mixture of isomers) [Example 52, (rac)-(2r,4s)-2-(6-(3-(Trifluoromethoxy)phenyl)-3-azabicyclo[4.1.0]heptane-3-carbonyl)-5-azaspiro[3.4]octan-6-one] | 4.8 nM
9 | O=C1N[C@]2(CO1)C[C@H](C(=O)N1CCC3(c4ccc(OC(F)(F)F)cc4)CC3C1)C2 (mixture of isomers) [Example 54, (rac)-(2s,4s)-2-(6-(4-(Trifluoromethoxy)phenyl)-3-azabicyclo[4.1.0]heptane-3-carbonyl)-7-oxa-5-azaspiro[3.4]octan-6-one] | 2.5 nM
10 | O=C1CC[C@]2(C[C@H](C(=O)N3CCC4(c5ccc(OC(F)(F)F)cc5)CC4C3)C2)N1 (mixture of isomers) [Example 55, (rac)-(2r,4s)-2-(6-(4-(Trifluoromethoxy)phenyl)-3-azabicyclo[4.1.0]heptane-3-carbonyl)-5-azaspiro[3.4]octan-6-one] | 10 nM
11 | Cc1ccc(C23CCN(C(=O)[C@H]4C[C@]5(COC(=O)N5)C4)CC2C3)cc1 (mixture of isomers) [Example 56, (rac)-(2s,4s)-2-(6-(p-Tolyl)-3-azabicyclo[4.1.0]heptane-3-carbonyl)-7-oxa-5-azaspiro[3.4]octan-6-one] | 7.7 nM
12 | O=C1N[C@]2(CO1)C[C@H](C(=O)N1CCC3(c4cccc(C(F)(F)F)c4)CC3C1)C2 (mixture of isomers) [Example 57, (rac)-(2s,4s)-2-(6-(3-(Trifluoromethyl)phenyl)-3-azabicyclo[4.1.0]heptane-3-carbonyl)-7-oxa-5-azaspiro[3.4]octan-6-one] | 1.9 nM
13 | CC(C)(C)c1cccc(C23CCN(C(=O)[C@H]4C[C@]5(COC(=O)N5)C4)CC2C3)c1 (mixture of isomers) [Example 60, (rac)-(2s,4s)-2-(6-(3-(tert-Butyl)phenyl)-3-azabicyclo[4.1.0]heptane-3-carbonyl)-7-oxa-5-azaspiro[3.4]octan-6-one] | 0.0072 nM
14 | CC(C)(C)c1cccc(C23CCN(C(=O)[C@H]4C[C@]5(CCC(=O)N5)C4)CC2C3)c1 (mixture of isomers) [Example 61, (rac)-(2r,4s)-2-(6-(3-(tert-Butyl)phenyl)-3-azabicyclo[4.1.0]heptane-3-carbonyl)-5-azaspiro[3.4]octan-6-one] | 0.25 nM

The remaining lines, values ahead:

Row | IC50 | SMILES
15 | 0.41 nM | CC(C)(C)c1ccc(C23CCN(C(=O)[C@H]4C[C@]5(CCC(=O)N5)C4)CC2C3)cc1 (mixture of isomers) [Example 63, (rac)-(2r,4s)-2-(6-(4-(tert-Butyl)phenyl)-3-azabicyclo[4.1.0]heptane-3-carbonyl)-5-azaspiro[3.4]octan-6-one]
16 | 0.65 nM | O=C1N[C@]2(CO1)C[C@H](C(=O)N1CCC3(c4cccc(C5CC5)c4)CC3C1)C2 (mixture of isomers) [Example 64, (rac)-(2s,4s)-2-(6-(3-Cyclopropylphenyl)-3-azabicyclo[4.1.0]heptane-3-carbonyl)-7-oxa-5-azaspiro[3.4]octan-6-one]
17 | 4 nM | O=C1CC[C@]2(C[C@H](C(=O)N3CCC4(c5cccc(C6CC6)c5)CC4C3)C2)N1 (mixture of isomers) [Example 65, (rac)-(2r,4s)-2-(6-(3-Cyclopropylphenyl)-3-azabicyclo[4.1.0]heptane-3-carbonyl)-5-azaspiro[3.4]octan-6-one]
18 | 0.69 nM | O=C1N[C@]2(CO1)C[C@H](C(=O)N1CCC3(c4ccc(C5CC5)cc4)CC3C1)C2 (mixture of isomers) [Example 66, (rac)-(2s,4s)-2-(6-(4-Cyclopropylphenyl)-3-azabicyclo[4.1.0]heptane-3-carbonyl)-7-oxa-5-azaspiro[3.4]octan-6-one]
19 | 5.6 nM | Cc1ccc(C23CCN(C(=O)[C@H]4C[C@]5(CCC(=O)N5)C4)CC2C3)cc1Cl (mixture of isomers) [Example 68, (rac)-(2r,4s)-2-(6-(3-Chloro-4-methylphenyl)-3-azabicyclo[4.1.0]heptane-3-carbonyl)-5-azaspiro[3.4]octan-6-one]
20 | 0.52 nM | CC1(c2ccc(C34CCN(C(=O)[C@H]5C[C@]6(CCC(=O)N6)C5)CC3C4)cc2)CC1 (mixture of isomers) [Example 70, (rac)-(2r,4s)-2-(6-(4-(1-Methylcyclopropyl)phenyl)-3-azabicyclo[4.1.0]heptane-3-carbonyl)-5-azaspiro[3.4]octan-6-one]
21 | 2.1 nM | Cc1cc(C2CC2)ccc1C12CCN(C(=O)[C@H]3C[C@]4(COC(=O)N4)C3)CC1C2 (mixture of isomers) [Example 72, (rac)-(2s,4s)-2-(6-(4-Cyclopropyl-2-methylphenyl)-3-azabicyclo[4.1.0]heptane-3-carbonyl)-7-oxa-5-azaspiro[3.4]octan-6-one]
22 | 0.25 nM | CC(C)c1cccc(C23CCN(C(=O)[C@H]4C[C@]5(COC(=O)N5)C4)CC2C3)c1 (mixture of isomers) [Example 73, (rac)-(2s,4s)-2-(6-(3-Isopropylphenyl)-3-azabicyclo[4.1.0]heptane-3-carbonyl)-7-oxa-5-azaspiro[3.4]octan-6-one]
23 | 241 nM | O=C1N[C@]2(CO1)C[C@H](C(=O)N1CCC3CC3(c3ccccc3)C1)C2 (mixture of isomers) [Example 77, (rac)-(2s,4s)-2-(1-Phenyl-3-azabicyclo[4.1.0]heptane-3-carbonyl)-7-oxa-5-azaspiro[3.4]octan-6-one]
24 | 3.5 nM | CCc1ccc(C23CC2CN(C(=O)[C@H]2C[C@]4(COC(=O)N4)C2)C3)cc1 (mixture of isomers) [Example 94, (rac)-(2s,4s)-2-(1-(4-Ethylphenyl)-3-azabicyclo[3.1.0]hexane-3-carbonyl)-7-oxa-5-azaspiro[3.4]octan-6-one]
25 | 180 nM | Cc1ccccc1[C@H]1[C@@H]2CN(C(=O)[C@H]3C[C@]4(COC(=O)N4)C3)C[C@@]21C (racemic) [Example 97, (rac)-(2s,4*S)-2-((1*R,5*S,6*R)-1-Methyl-6-(o-tolyl)-3-azabicyclo[3.1.0]hexane-3-carbonyl)-7-oxa-5-azaspiro[3.4]octan-6-one]
26 | 23 nM | Cc1ccc([C@H]2[C@@H]3CN(C(=O)[C@H]4C[C@]5(COC(=O)N5)C4)C[C@@]32C)cc1C (racemic) [Example 102, (rac)-(2s,4*5)-2-((1*R,5*S,6*R)-6-(3,4-Dimethylphenyl)-1-methyl-3-azabicyclo[3.1.0]hexane-3-carbonyl)-7-oxa-5-azaspiro[3.4]octan-6-one]
27 | 28 nM | C[C@]12CN(C(=O)[C@H]3C[C@]4(COC(=O)N4)C3)C[C@H]1[C@@H]2c1cccc(C(F)(F)F)c1 (racemic) [Example 106, (rac)-(2s,4*5)-2-((1*R,5*S,6*R)-1-Methyl-6-(3-(trifluoromethyl)phenyl)-3-azabicyclo[3.1.0]hexane-3-carbonyl)-7-oxa-5-azaspiro[3.4]octan-6-one]
28 | 73 nM | C[C@]12CN(C(=O)[C@H]3C[C@]4(COC(=O)N4)C3)C[C@H]1[C@@H]2c1ccc(OC(F)(F)F)cc1 (racemic) [Example 107, (rac)-(2s,4*5)-2-((1*R,5*S,6*R)-1-Methyl-6-(4-(trifluoromethoxy)phenyl)-3-azabicyclo[3.1.0]hexane-3-carbonyl)-7-oxa-5-azaspiro[3.4]octan-6-one]
29 | 38 nM | C[C@]12CN(C(=O)[C@H]3C[C@]4(COC(=O)N4)C3)C[C@H]1[C@@H]2c1ccc(C2CC2)cc1 (racemic) [Example 108, (rac)-(2s,4*5)-2-((1*R,5*S,6*R)-6-(4-Cyclopropylphenyl)-1-methyl-3-azabicyclo[3.1.0]hexane-3-carbonyl)-7-oxa-5-azaspiro[3.4]octan-6-one]
